Legend:
Assay type in all cases: in vivo
Striga hermonthica = assay: Parasitic plant germination induction test (Striga hermonthica seeds); settings: in the dark for 2 days; for Germination rate 0.1 nM: compound concentration 0.1 nM; for Germination rate 1 nM: compound concentration 1 nM; for Germination rate 10 nM: compound concentration 10 nM
Procedure: (§1) A parasitic plant germination induction test was conducted using the compounds synthesized in Example 1 as test compounds. The seeds of a parasitic plant (Striga hermonthica, Orobanche minor, or Phelipanche aegyptiaca) were suspended in sterilized ultrapure water, and this was dispensed in an amount of 100 µL each (containing about 20 seeds) into a 96-well plate. The test compounds or control compounds (Comparison Compound 1 or synthetic Strigolactone (GR^24: Comparison Compound 2)) dissolved in DMSO were individually added thereto to a final concentration of these compounds of 10 nM to 1 fM (1 × 10^-8 to 1 × 10^-15 M), and allowed to stand in the dark for 2 days. The presence or absence of germination was observed using a microscope, and the germination rate (i.e., number of germinated seeds/total number of seeds) was measured. The higher the germination rate in the parasitic plant germination induction test, or the higher the germination rate at lower concentration, the higher the Striga germination inducing activity.
(§2) In Tables 1 to 6, the concentrations (10 nM, 1 nM, and 0.1 nM) represent compound concentrations. In Tables 1-6, the evaluation criteria for the compounds are as follows: • ++: germination rate of 20% or more • +: germination rate of 5% or more and less than 20% • -: germination rate of less than 5% Table 1

Orobanche minor = assay: Parasitic plant germination induction test (Orobanche minor seeds); settings: in the dark for 2 days
Procedure: as §1, §2

Phelipanche aegyptiaca = assay: Parasitic plant germination induction test (Phelipanche aegyptiaca seeds); settings: in the dark for 2 days
Procedure: as §1, §2

| Molecule | Germination rate 0.1 nM (Striga hermonthica) | Germination rate 1 nM (Striga hermonthica) | Germination rate 10 nM (Striga hermonthica) | Germination rate 0.1 nM (Orobanche minor; compound concentration 0.1 nM) | Germination rate 1 nM (Orobanche minor; compound concentration 1 nM) | Germination rate 10 nM (Orobanche minor; compound concentration 10 nM) | Germination rate 1 nM (Phelipanche aegyptiaca; compound concentration 1 nM) | Germination rate 10 nM (Phelipanche aegyptiaca; compound concentration 10 nM) |
| --- | --- | --- | --- | --- | --- | --- | --- | --- |
| COc1ccc(S(=O)(=O)N2CCN(C(=O)OC3C=C(C)C(=O)O3)CC2)cc1 (stereo not shown) [Compound 2] | ++ (germination rate of 20% or more) | ++ (germination rate of 20% or more) | ++ (germination rate of 20% or more) | – | – | – | – | – |
| CCCCCOc1ccc(S(=O)(=O)N2CCN(C(=O)OC3C=C(C)C(=O)O3)CC2)cc1 (stereo not shown) [Compound 5] | ++ (germination rate of 20% or more) | ++ (germination rate of 20% or more) | ++ (germination rate of 20% or more) | – | – | – | – | – |
| CCc1ccc(S(=O)(=O)N2CCN(C(=O)OC3C=C(C)C(=O)O3)CC2)cc1 (stereo not shown) [Compound 6] | ++ (germination rate of 20% or more) | ++ (germination rate of 20% or more) | ++ (germination rate of 20% or more) | – | – | – | – | – |
| CCCCCc1ccc(S(=O)(=O)N2CCN(C(=O)OC3C=C(C)C(=O)O3)CC2)cc1 (stereo not shown) [Compound 7] | ++ (germination rate of 20% or more) | ++ (germination rate of 20% or more) | ++ (germination rate of 20% or more) | – | – | – | – | – |
| CC1=CC(OC(=O)N2CCN(S(=O)(=O)c3ccc(C(F)(F)F)cc3)CC2)OC1=O (stereo not shown) [Compound 8] | ++ (germination rate of 20% or more) | ++ (germination rate of 20% or more) | ++ (germination rate of 20% or more) | – | – | – | – | – |
| CC1=CC(OC(=O)N2CCN(S(=O)(=O)c3cccc(Br)c3)CC2)OC1=O (stereo not shown) [Compound 9] | ++ (germination rate of 20% or more) | ++ (germination rate of 20% or more) | ++ (germination rate of 20% or more) | – | – | – | – | – |
| COc1ccc(S(=O)(=O)N2CCN(C(=O)OC3C=CC(=O)O3)CC2)cc1 (stereo not shown) [Compound 10] | - (germination rate of less than 5%) | ++ (germination rate of 20% or more) | ++ (germination rate of 20% or more) | – | – | – | – | – |
| CCOc1ccc(S(=O)(=O)N2CCN(C(=O)OC3C=CC(=O)O3)CC2)cc1 (stereo not shown) [Compound 11] | + (germination rate of 5% or more and less than 20%) | ++ (germination rate of 20% or more) | ++ (germination rate of 20% or more) | – | – | – | – | – |
| CCCOc1ccc(S(=O)(=O)N2CCN(C(=O)OC3C=CC(=O)O3)CC2)cc1 (stereo not shown) [Compound 12] | + (germination rate of 5% or more and less than 20%) | ++ (germination rate of 20% or more) | ++ (germination rate of 20% or more) | – | – | – | – | – |
| CCCCCOc1ccc(S(=O)(=O)N2CCN(C(=O)OC3C=CC(=O)O3)CC2)cc1 (stereo not shown) [Compound 14] | - (germination rate of less than 5%) | ++ (germination rate of 20% or more) | ++ (germination rate of 20% or more) | – | – | – | – | – |
| Cc1ccc(S(=O)(=O)N2CCN(C(=O)OC3C=CC(=O)O3)CC2)cc1 (stereo not shown) [Compound 15] | - (germination rate of less than 5%) | + (germination rate of 5% or more and less than 20%) | ++ (germination rate of 20% or more) | – | – | – | – | – |
| CCc1ccc(S(=O)(=O)N2CCN(C(=O)OC3C=CC(=O)O3)CC2)cc1 (stereo not shown) [Compound 16] | – | ++ (germination rate of 20% or more) | ++ (germination rate of 20% or more) | – | – | – | – | – |
| CCCCCc1ccc(S(=O)(=O)N2CCN(C(=O)OC3C=CC(=O)O3)CC2)cc1 (stereo not shown) [Compound 17] | + (germination rate of 5% or more and less than 20%) | + (germination rate of 5% or more and less than 20%) | ++ (germination rate of 20% or more) | – | – | – | – | – |
| O=C1C=CC(OC(=O)N2CCN(S(=O)(=O)c3ccc(C(F)(F)F)cc3)CC2)O1 (stereo not shown) [Compound 18] | - (germination rate of less than 5%) | + (germination rate of 5% or more and less than 20%) | ++ (germination rate of 20% or more) | – | – | – | – | – |
| O=C1C=CC(OC(=O)N2CCN(S(=O)(=O)c3cccc(Br)c3)CC2)O1 (stereo not shown) [Compound 19] | - (germination rate of less than 5%) | ++ (germination rate of 20% or more) | ++ (germination rate of 20% or more) | – | – | – | – | – |
| O=C1C=CC(OC(=O)N2CCN(S(=O)(=O)c3ccc([N+](=O)[O-])cc3)CC2)O1 (stereo not shown) [Compound 20] | - (germination rate of less than 5%) | ++ (germination rate of 20% or more) | ++ (germination rate of 20% or more) | – | – | – | – | – |
| CC(C)(C)c1ccccc1OCC1CN(C(=O)OC2C=CC(=O)O2)CCO1 (stereo not shown) [Reference Compound 30] | - (germination rate of less than 5%) | ++ (germination rate of 20% or more) | ++ (germination rate of 20% or more) | – | – | – | – | – |
| GR^24 [Comparison Compound 2, reference compound] | - (germination rate of less than 5%) | ++ (germination rate of 20% or more) | ++ (germination rate of 20% or more) | - (germination rate of less than 5%) | + (germination rate of 5% or more and less than 20%) | ++ (germination rate of 20% or more) | - (germination rate of less than 5%) | ++ (germination rate of 20% or more) |

Reference: patent publication EP3693362B1, “PARASITIC PLANT GERMINATION REGULATOR” (National University Corporation Tokai National Higher …, priority 2017, dated 2019)
